Source: paper PMC8875242, “Evaluation of the Potency of Anti-HIV and Anti-HCV Drugs to Inhibit P-Glycoprotein Mediated Efflux of Digoxin in Caco-2 Cell Line and Human Precision-Cut Intestinal Slices” (Pharmaceuticals, 2022)
Where a name gives a salt, the structure may show the parent alone. Read-outs that look alike come from different tables or passages of the source.

Key:
ABCB1 [1] = target: T1, ABCB1 (Homo sapiens, UniProt P08183); assay: Bidirectional transport of [^3H]-digoxin across Caco-2 monolayers
T1 sequence (P08183 whole entry): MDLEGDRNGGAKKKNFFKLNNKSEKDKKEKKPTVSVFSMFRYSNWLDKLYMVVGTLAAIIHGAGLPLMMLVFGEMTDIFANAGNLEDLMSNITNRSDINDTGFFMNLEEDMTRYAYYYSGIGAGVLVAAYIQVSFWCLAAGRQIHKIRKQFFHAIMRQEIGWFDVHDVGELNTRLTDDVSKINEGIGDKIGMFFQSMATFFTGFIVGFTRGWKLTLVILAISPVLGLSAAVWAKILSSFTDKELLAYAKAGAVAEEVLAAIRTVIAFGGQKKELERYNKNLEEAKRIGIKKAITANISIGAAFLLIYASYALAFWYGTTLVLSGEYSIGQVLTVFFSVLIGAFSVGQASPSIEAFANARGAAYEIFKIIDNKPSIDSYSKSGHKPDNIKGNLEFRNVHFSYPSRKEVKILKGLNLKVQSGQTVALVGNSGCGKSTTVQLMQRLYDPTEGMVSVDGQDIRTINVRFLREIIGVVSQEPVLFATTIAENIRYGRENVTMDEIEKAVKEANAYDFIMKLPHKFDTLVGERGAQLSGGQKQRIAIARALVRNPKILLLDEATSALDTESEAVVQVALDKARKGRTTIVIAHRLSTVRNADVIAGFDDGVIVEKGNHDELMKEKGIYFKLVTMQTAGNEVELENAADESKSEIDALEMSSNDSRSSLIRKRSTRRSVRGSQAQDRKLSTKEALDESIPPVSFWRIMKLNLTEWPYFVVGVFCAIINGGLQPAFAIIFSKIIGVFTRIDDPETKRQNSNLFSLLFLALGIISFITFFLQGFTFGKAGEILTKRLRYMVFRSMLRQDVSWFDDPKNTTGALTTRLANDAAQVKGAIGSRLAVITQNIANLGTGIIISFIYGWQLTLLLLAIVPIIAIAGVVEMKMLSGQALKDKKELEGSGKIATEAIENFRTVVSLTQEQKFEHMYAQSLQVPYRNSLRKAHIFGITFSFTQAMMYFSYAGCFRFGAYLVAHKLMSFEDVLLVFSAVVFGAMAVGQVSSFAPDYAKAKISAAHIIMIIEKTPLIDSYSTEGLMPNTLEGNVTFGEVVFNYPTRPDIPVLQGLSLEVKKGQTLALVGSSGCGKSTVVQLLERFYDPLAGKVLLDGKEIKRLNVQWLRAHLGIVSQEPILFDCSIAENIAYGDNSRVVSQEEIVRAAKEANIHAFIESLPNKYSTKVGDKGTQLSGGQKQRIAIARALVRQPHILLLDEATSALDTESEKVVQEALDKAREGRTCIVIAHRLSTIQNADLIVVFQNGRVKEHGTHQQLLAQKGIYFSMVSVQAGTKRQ
Description: Caco-2 cells were seeded at a density of 3 × 10^5 cells per insert and cultured for 21 days in a standard cultivation medium containing 1% penicillin–streptomycin. The medium was changed every other day, during which the transepithelial electrical resistance (TEER) across the cell monolayers was measured using a Millicell-ERS instrument (Millipore Corporation, Bedford, MA, USA). […] For the bidirectional permeability assay, a Hanks’ balanced salt solution buffer was used. The pH in the A compartment was adjusted to 6.5 using a methanesulfonic acid solution, while that in the B compartment was adjusted to 7.4 using a HEPES solution [34, 80]. The volumes used were 0.5 mL and 1.5 mL in compartments A and B, respectively. To improve the reproducibility of the results, the receiver compartment always contained 1% bovine serum albumin, as previously recommended. […] Samples (200 µL) were collected after 1 and 2 h from the receiver compartment; after the first collection, fresh receiver solution was added to the receiver compartment to maintain the original volume. The concentration of [^3H]-digoxin was quantified using a Tri-Carb 2900TR liquid scintillation analyzer (Packard Bioscience, Meriden, CT, USA). Its concentration in the samples collected during Caco-2 experiments was measured after adding 1 mL of Ultima Gold^TM Cocktail. A to B and B to A transport were evaluated in terms of an apparent permeability coefficient (Papp), calculated using the equation in [80, 81]. […] The efflux ratio (rPapp) was then calculated using the equation [80, 82]:rPapp = (Papp B to A)/(Papp A to B)(2)

ABCB1 [2] = target: T1, ABCB1; assay: Ex vivo [^3H]-digoxin accumulation in hPCIS prepared from the jejunum
Description: Ex vivo accumulation assays were performed as previously described. Directly after surgery, the resected part of the human jejunum was placed in cold (4 °C) Krebs–Henseleit buffer oxygenated with carbogen gas. The muscle layer was removed, and the remaining mucosa was cut into fragments measuring approximately 5 by 20 mm, which were then embedded in a 3% agarose solution (3% (wt/vol) in 0.9% NaCl, 37 °C). PCIS of approximately 300 µm thickness were cut using a Krumdieck tissue slicer (Alabama R&D, Munford, AL, USA). […] Both incubation steps were conducted in a humidified atmosphere of […] and 5% CO2 at 37 °C [32, 34, 35]. The accumulation of [^3H]-digoxin was stopped after 2 h of incubation by washing the slices twice in the Krebs–Henseleit cold buffer (4 °C). […] The samples were then centrifuged (10 min; 7800 g). Concentrations of [^3H]-digoxin in the supernatant samples (300 µL) were assessed after mixing them with 1.5 mL of Ultima Gold™ via scintillation counting (Tri-Carb 2900TR liquid scintillation analyzer, Packard Bioscience). The pellets obtained during centrifugation were dried overnight at 37 °C and then solubilized in 200 µL of 5 M NaOH for 24 h. Milli-Q water was then added to the samples to achieve a NaOH concentration of 1 M. The protein content was measured using a bicinchoninic acid protein kit (Thermo Fisher Scientific, Waltham, MA, USA). The measured [^3H]-digoxin concentrations were normalized against the protein content.

Solubility = assay type: physicochemical; settings: incubation medium, 0.1% DMSO
Description: The stock solutions were stored at −20 °C before use. The final concentration of DMSO was 0.1% in all experiments. The final concentrations of EtOH in hPCIS and Caco-2 cells were 0.03% and 0.012%, respectively.

ABCB1 [3] = test system: ABCB1; parameters: method as in PMID 23132334; settings: apparent activity at 100 µM; cited from earlier work
ABCB1 [4] = settings: suggested; cited from earlier work
[5] = cited from earlier work
ABCB1 [6] = target: T1, ABCB1; parameters: confirming the functional expression of ABCB1 in the Caco-2 cells; host or cells: Caco-2; method as in PMID 31481446; settings: Caco-2, cited from earlier work
ABCB1 [7] = target: T1, ABCB1; parameters: confirming the functional expression of ABCB1 in the Caco-2 cells; host or cells: Caco-2; method as in PMID 31481446; settings: hPCIS, cited from earlier work

In the case of `C[C@@H]1CCO[C@H]2Cn3cc(C(=O)NCc4ccc(F)cc4F)c(=O)c(O)c3C(=O)N12` [Dolutegravir, dolutegravir], the “Digoxin Inhibition (bidirectional transport, in words)” value (ABCB1 [1]; compound 10 µM) is reported as “No significant effect”, the “Digoxin Inhibition in human PCIS (in words)” value (ABCB1 [2]; compound 10 µM, hPCIS) is reported as “did not induce any detectable inhibition” and the “Solubility (in words)” value (Solubility) is reported as “limited solubility”. The “Inhibition of digoxin transport in MDCK-ABCB1 cells” value (ABCB1 [3]) was “weak inhibitor”.

For `COC[C@H]1C[C@@H](c2ncc(-c3ccc4c(c3)COc3cc5c(ccc6nc([C@@H]7CC[C@H](C)N7C(=O)[C@@H](NC(=O)OC)C(C)C)[nH]c65)cc3-4)[nH]2)N(C(=O)[C@H](NC(=O)OC)c2ccccc2)C1` [Velpatasvir, velpatasvir], the “Digoxin Inhibition (bidirectional transport, in words)” value (ABCB1 [1]; compound 5 µM) is listed as “No significant effect”, the “Solubility (in words)” value (Solubility) is listed as “limited solubility” and the IC50 (ABCB1 [4]) is listed as about 20.6 µM. For the same compound, the “Increase of digoxin exposure” value ([5]; healthy volunteers) was 34%.

In the case of `C=C[C@@H]1C[C@]1(NC(=O)[C@@H]1C[C@@H]2CN1C(=O)[C@H](C(C)(C)C)NC(=O)O[C@@H]1C[C@H]1CCCCCc1nc3ccc(OC)cc3nc1O2)C(=O)NS(=O)(=O)C1CC1.O` [Grazoprevir, grazoprevir], the “Digoxin Inhibition in human PCIS (in words)” value (ABCB1 [2]) is reported as “increased [^3H]-digoxin uptake”.

For `Cc1cn([C@H]2C[C@H](N=[N+]=[N-])[C@@H](CO)O2)c(=O)[nH]c1=O` [Zidovudine, zidovudine], the “Digoxin Inhibition (bidirectional transport, in words)” value (ABCB1 [1]; compound 100 µM) was “No significant effect” and the “Digoxin Inhibition in human PCIS (in words)” value (ABCB1 [2]; compound 100 µM, hPCIS) was “did not induce any detectable inhibition”.

With `Cc1cc(C#N)cc(C)c1Oc1nc(Nc2ccc(C#N)cc2)nc(N)c1Br` [Etravirine, etravirine] the “Digoxin Inhibition (bidirectional transport, in words)” value (ABCB1 [1]; compound 20 µM) was “YES”, the “Digoxin Inhibition in human PCIS (in words)” value (ABCB1 [2]; compound 20 µM, hPCIS) was “did not inhibit” and the “Solubility (in words)” value (Solubility) was “low solubility”.

With `CC(C)CN(C[C@@H](O)[C@H](Cc1ccccc1)NC(=O)O[C@H]1CO[C@H]2OCC[C@H]21)S(=O)(=O)c1ccc(N)cc1` [Darunavir, darunavir] the “Digoxin Inhibition in human PCIS (in words)” value (ABCB1 [2]; compound 50 µM, hPCIS) was “did not inhibit”.

For `COC(=O)N[C@H](C(=O)N1CCC[C@H]1c1nc(-c2ccc3c(c2)O[C@@H](c2ccccc2)n2c-3cc3cc(-c4c[nH]c([C@@H]5CCCN5C(=O)[C@@H](NC(=O)OC)C(C)C)n4)ccc32)c[nH]1)C(C)C` [Elbasvir, elbasvir], the “Digoxin Inhibition in human PCIS (in words)” value (ABCB1 [2]; compound 5 µM, hPCIS) is given as “no inhibition”, the “Solubility (in words)” value (Solubility) is given as “low solubility” and the “Increase in plasma AUC (intestinal ABCB1 inhibition)” value ([5]; humans) is given as 11%.

For `COC(=O)N[C@H](C(=O)N[C@@H](Cc1ccccc1)[C@@H](O)CN(Cc1ccc(-c2ccccn2)cc1)NC(=O)[C@@H](NC(=O)OC)C(C)(C)C)C(C)(C)C` [Atazanavir, atazanavir], the “Digoxin Inhibition (bidirectional transport, in words)” value (ABCB1 [1]; compound 50 µM) was “YES”, the “Digoxin Inhibition in human PCIS (in words)” value (ABCB1 [2]; compound 20 µM, hPCIS) was “did not inhibit” and the “Digoxin Inhibition in human PCIS (in words)” value (ABCB1 [2]; compound 50 µM, hPCIS) was “YES”. For the same compound, the “RHD123 Inhibition (bidirectional transport)” value (ABCB1 [6]; compound 50 µM) was “YES” and the “RHD123 Inhibition in human PCIS” value (ABCB1 [7]; compound 50 µM) was “YES”.

With `CC(C)OC(=O)OCOP(=O)(CO[C@H](C)Cn1cnc2c(N)ncnc21)OCOC(=O)OC(C)C` [Tenofovir DF, tenofovir disoproxil fumarate] the “Digoxin Inhibition in human PCIS (in words)” value (ABCB1 [2]; compound 100 µM, hPCIS) was “did not induce any detectable inhibition”.

In the case of `CC(C)OC(=O)[C@H](C)N[P@](=O)(OC[C@H]1O[C@@H](n2ccc(=O)[nH]c2=O)[C@](C)(F)[C@@H]1O)Oc1ccccc1` [Sofosbuvir, sofosbuvir], the “Digoxin Inhibition in human PCIS (in words)” value (ABCB1 [2]) is reported as “no effect”.

For `CC(C)(C)NC(=O)[C@@H]1C[C@@H]2CCCC[C@@H]2CN1C[C@@H](O)[C@H](Cc1ccccc1)NC(=O)[C@H](CC(N)=O)NC(=O)c1ccc2ccccc2n1` [Saquinavir, saquinavir], the “Digoxin Inhibition (bidirectional transport, in words)” value (ABCB1 [1]; compound 20 µM) was “YES”, the “Digoxin Inhibition in human PCIS (in words)” value (ABCB1 [2]; compound 5 µM, hPCIS) was “did not induce any detectable inhibition” and the “Digoxin Inhibition in human PCIS (in words)” value (ABCB1 [2]; compound 20 µM, hPCIS) was “YES”. The “RHD123 Inhibition (bidirectional transport)” value (ABCB1 [6]; compound 20 µM) was “YES” and the “RHD123 Inhibition in human PCIS” value (ABCB1 [7]; compound 20 µM) was “YES”.

In the case of `COC(=O)N[C@H](C(=O)N1CC2(CC2)C[C@H]1c1ncc(-c2ccc3c(c2)C(F)(F)c2cc(-c4ccc5nc([C@@H]6[C@H]7CC[C@H](C7)N6C(=O)[C@@H](NC(=O)OC)C(C)C)[nH]c5c4)ccc2-3)[nH]1)C(C)C` [Ledipasvir, ledipasvir], the “Digoxin Inhibition (bidirectional transport, in words)” value (ABCB1 [1]; compound 50 µM) is reported as “YES”, the “Digoxin Inhibition in human PCIS (in words)” value (ABCB1 [2]; compound 20 µM, hPCIS) is reported as “no inhibition” and the “Digoxin Inhibition in human PCIS (in words)” value (ABCB1 [2]; compound 50 µM, hPCIS) is reported as “no inhibition”. For the same compound, the “Solubility (in words)” value (Solubility) was “low solubility” and the “RHD123 Inhibition (bidirectional transport)” value (ABCB1 [6]; compound 50 µM) was “YES”.

For maraviroc, the “Digoxin Inhibition (bidirectional transport, in words)” value (ABCB1 [1]; compound 100 µM) is given as “No significant effect”, the “Digoxin Inhibition in human PCIS (in words)” value (ABCB1 [2]; compound 100 µM, hPCIS) is given as “did not induce any detectable inhibition” and the “RHD123 Inhibition (bidirectional transport)” value (ABCB1 [6]; compound 100 µM) is given as “YES”.

For `COC(=O)N[C@H](C(=O)N1CCC[C@H]1c1nc(-c2ccc(-c3ccc(-c4c[nH]c([C@@H]5CCCN5C(=O)[C@@H](NC(=O)OC)C(C)C)n4)cc3)cc2)c[nH]1)C(C)C` [Daclatasvir, daclatasvir], the “Digoxin Inhibition in human PCIS (in words)” value (ABCB1 [2]; compound 20 µM, hPCIS) is listed as “YES” and the “RHD123 Inhibition (bidirectional transport)” value (ABCB1 [6]; compound 20 µM) is listed as “YES”.

In the case of `C[C@H]1O[C@@H](O[C@H]2[C@@H](O)C[C@H](O[C@H]3[C@@H](O)C[C@H](O[C@H]4CC[C@@]5(C)[C@H](CC[C@@H]6[C@@H]5C[C@@H](O)[C@]5(C)[C@@H](C7=CC(=O)OC7)CC[C@]65O)C4)O[C@@H]3C)O[C@@H]2C)C[C@H](O)[C@@H]1O` [Digoxin, digoxin], the efflux ratio at 2 h, 6 nM (ABCB1 [1]; human) is reported as 9.53 ± 2.22.

For `Cc1cccc(C)c1OCC(=O)N[C@@H](Cc1ccccc1)[C@@H](O)C[C@H](Cc1ccccc1)NC(=O)[C@H](C(C)C)N1CCCNC1=O` [Lopinavir, lopinavir], the “Digoxin Inhibition in human PCIS (in words)” value (ABCB1 [2]; compound 20 µM, hPCIS) is given as “did not induce any detectable inhibition”, the “Digoxin Inhibition in human PCIS (in words)” value (ABCB1 [2]; compound 50 µM, hPCIS) is given as “YES” and the “RHD123 Inhibition in human PCIS” value (ABCB1 [7]; compound 50 µM) is given as “YES”.

In the case of `Cc1cc(/C=C/C#N)cc(C)c1Nc1ccnc(Nc2ccc(C#N)cc2)n1` [Rilpivirine, rilpivirine], the “Digoxin Inhibition (bidirectional transport, in words)” value (ABCB1 [1]; compound 20 µM) is listed as “YES”, the “Digoxin Inhibition in human PCIS (in words)” value (ABCB1 [2]; compound 20 µM, hPCIS) is listed as “did not inhibit” and the “Effect on the pharmacokinetics of digoxin or tenofovir DF in vivo” value ([5]; dose of 25 mg/day) is listed as “does not significantly affect”.

In the case of `Nc1nc(NC2CC2)c2ncn([C@H]3C=C[C@@H](CO)C3)c2n1` [Abacavir, abacavir], the “Digoxin Inhibition (bidirectional transport, in words)” value (ABCB1 [1]; compound 100 µM) is reported as “No significant effect” and the “Digoxin Inhibition in human PCIS (in words)” value (ABCB1 [2]; compound 100 µM, hPCIS) is reported as “did not induce any detectable inhibition”.
